{
  "source": "paper PMC7044277",
  "about": "(Nature Communications, 2020)",
  "key": {"[1]": {"target": "DRD2 (D2 long receptor) wild-type (Homo sapiens, UniProt P14416)", "sequence (P14416 whole entry)": "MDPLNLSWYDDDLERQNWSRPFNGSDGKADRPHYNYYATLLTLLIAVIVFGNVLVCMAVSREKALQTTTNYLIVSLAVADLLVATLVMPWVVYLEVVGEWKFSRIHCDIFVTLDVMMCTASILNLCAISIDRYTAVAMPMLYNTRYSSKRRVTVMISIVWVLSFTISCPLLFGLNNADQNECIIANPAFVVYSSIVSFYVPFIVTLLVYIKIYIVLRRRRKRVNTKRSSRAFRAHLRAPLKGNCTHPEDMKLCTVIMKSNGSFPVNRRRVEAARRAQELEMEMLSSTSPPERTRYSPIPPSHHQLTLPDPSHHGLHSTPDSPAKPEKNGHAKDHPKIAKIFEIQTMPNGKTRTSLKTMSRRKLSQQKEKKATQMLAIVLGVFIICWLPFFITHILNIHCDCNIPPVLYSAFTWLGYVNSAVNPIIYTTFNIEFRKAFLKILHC", "assay": "Radioligand competition binding, [3H]-N-methylspiperone, HEK293T membranes", "conditions": "DRD2; [3H]-methylspiperone (0.8-1.0 nM); read-out: Ki"}, "[2]": {"target": "DRD3 wild-type (Homo sapiens, UniProt P35462)", "sequence (P35462 whole entry)": "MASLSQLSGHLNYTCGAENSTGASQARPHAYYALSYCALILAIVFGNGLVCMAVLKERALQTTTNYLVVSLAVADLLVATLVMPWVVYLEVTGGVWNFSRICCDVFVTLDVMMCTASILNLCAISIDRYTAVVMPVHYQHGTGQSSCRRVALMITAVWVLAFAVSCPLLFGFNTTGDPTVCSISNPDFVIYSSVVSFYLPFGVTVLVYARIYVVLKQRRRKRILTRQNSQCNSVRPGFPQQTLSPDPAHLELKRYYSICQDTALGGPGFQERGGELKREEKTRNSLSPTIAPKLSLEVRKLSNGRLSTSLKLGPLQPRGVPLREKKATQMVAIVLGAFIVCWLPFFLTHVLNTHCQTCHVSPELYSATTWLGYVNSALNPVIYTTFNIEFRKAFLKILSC", "assay": "Radioligand competition binding, [3H]-N-methylspiperone"}, "[3]": {"target": "T1, DRD4 (D4.4 variant) wild-type (Homo sapiens, UniProt P21917)", "T1 sequence (P21917 1-419)": "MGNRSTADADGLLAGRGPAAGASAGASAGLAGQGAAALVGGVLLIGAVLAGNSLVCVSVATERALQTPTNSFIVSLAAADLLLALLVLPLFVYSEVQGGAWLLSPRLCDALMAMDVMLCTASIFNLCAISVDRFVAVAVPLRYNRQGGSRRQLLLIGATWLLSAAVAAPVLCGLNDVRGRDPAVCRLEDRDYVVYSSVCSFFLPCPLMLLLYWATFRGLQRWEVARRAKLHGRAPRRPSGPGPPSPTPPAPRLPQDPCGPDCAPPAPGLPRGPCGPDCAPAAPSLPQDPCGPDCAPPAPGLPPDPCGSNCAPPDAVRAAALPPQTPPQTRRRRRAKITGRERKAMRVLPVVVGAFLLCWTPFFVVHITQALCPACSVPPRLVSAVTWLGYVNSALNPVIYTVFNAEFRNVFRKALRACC", "assay": "Radioligand competition binding, [3H]-N-methylspiperone"}, "[4]": {"target": "T2, DRD2 (D2 long receptor) (Homo sapiens, UniProt P14416)", "T2 sequence (P14416 whole entry)": "as the sequence (P14416 whole entry) above", "assay": "Gαi/o-mediated cAMP inhibition (GloSensor split-luciferase cAMP reporter), HEK293T;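 note: compounds applied 15 min at room temperature, then luciferin plus 400 nM isoproterenol to raise cAMP through endogenous β2-adrenergic receptors, luminescence read 15 min later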", "type": "cell-based", "conditions": "for Response, Fig_S11b dose-response: individual replicates"}, "[5]": {"target": "T3, DRD4 (D4.4 variant) (Homo sapiens, UniProt P21917)", "T3 sequence (P21917 1-419)": "T1 sequence (P21917 1-419)", "assay": "Gαi/o-mediated cAMP inhibition (GloSensor)", "type": "cell-based", "conditions": "DRD4; agonist, cAMP inhibition; read-out: EC50 ± SEM"}, "[6]": {"target": "T2, DRD2 (D2 long receptor)", "assay": "β-arrestin2 recruitment (Tango), HTLA cells", "type": "cell-based", "conditions": "for Response, Fig_S11c dose-response: individual replicates"}, "[7]": {"target": "DRD3 (Homo sapiens, UniProt P35462)", "sequence (P35462 whole entry)": "as the sequence (P35462 whole entry) above", "assay": "β-arrestin2 recruitment (Tango)", "type": "cell-based", "conditions": "DRD3, Tango"}, "[8]": {"target": "T3, DRD4 (D4.4 variant)", "assay": "β-arrestin2 recruitment (Tango)", "type": "cell-based", "conditions": "DRD4; Tango; read-out: EC50 ± SEM"}, "[9]": {"target": "DRD2 F1103.28A (Homo sapiens, UniProt P14416, F110A)", "sequence (P14416 whole entry F110A)": "as the sequence (P14416 whole entry) above, with F110A counted along it", "type": "binding", "design": "expressed in transfected cells; host or cells: HEK293T (ATCC CRL-11268)", "conditions": "DRD2 F1103.28A; read-out: Ki"}},
  "note": "Several values for one entry are separate records, joined by “and”; a condition that tells them apart may be missing. Equal entries are not always repeated.",
  "data": [
    {"smiles": "CC(NCC1(O)CCCCC1)c1cc2ccccc2o1.Cl", "note": "(stereo not drawn) [O1LE6]", "values": [
      {"measurement": "Ki", "setting": "[1]", "value": "> 10000", "unit": "nM"},
      {"measurement": "Ki", "setting": "[2]; DRD3, [3H]-methylspiperone (0.8-1.0 nM), read-out: Ki", "value": 760, "unit": "nM"},
      {"measurement": "pKi ± SEM", "setting": "[2]; DRD3 wild-type", "value": "6.12±0.17"},
      {"measurement": "Ki", "setting": "[3]; DRD4, [3H]-methylspiperone (0.8-1.0 nM), read-out: Ki", "value": 5890, "unit": "nM"},
      {"measurement": "pKi ± SEM", "setting": "[3]; DRD4 wild-type", "value": "5.23±0.05"},
      {"measurement": "EC50", "setting": "[4]; DRD2, agonist, Gαi/o-mediated cAMP inhibition, read-out: EC50 ± SEM", "value": "33.1 ± 18.8", "unit": "nM"},
      {"measurement": "Emax relative to quinpirole response", "setting": "[4]; DRD2, cAMP inhibition", "value": 91.90, "unit": "%"},
      {"measurement": "Response, Fig_S11b dose-response", "setting": "[4]; Log[Drug] -5", "value": "89.3204 and 91.1814 and 93.3649 and 89.4471 and 88.0921 and 76.1419 and 96.2317 and 89.795 and 84.5788"},
      {"measurement": "Response, Fig_S11b dose-response", "setting": "[4]; Log[Drug] -5.52", "value": "91.5039 and 91.6528 and 82.6955 and 86.6619 and 92.27 and 73.2437 and 89.2098 and 91.9183 and 89.3603"},
      {"measurement": "Response, Fig_S11b dose-response", "setting": "[4]; Log[Drug] -6", "value": "93.6874 and 86.8392 and 81.0827 and 85.4951 and 84.0648 and 76.6312 and 94.0081 and 90.9486 and 79.3124"},
      {"measurement": "Response, Fig_S11b dose-response", "setting": "[4]; Log[Drug] -6.52", "value": "82.5466 and 82.8444 and 76.7653 and 79.6611 and 79.6234 and 70.5902 and 84.9299 and 83.4419 and 82.6896"},
      {"measurement": "Response, Fig_S11b dose-response", "setting": "[4]; Log[Drug] -7", "value": "69.4705 and 74.0856 and 77.7579 and 57.4355 and 50.0583 and 54.3867 and 80.2821 and 76.3198 and 67.1078"},
      {"measurement": "Response, Fig_S11b dose-response", "setting": "[4]; Log[Drug] -7.52", "value": "64.6321 and 55.65 and 60.3147 and 22.695 and 37.7317 and 15.9389 and 61.2396 and 56.2574 and 56.2742"},
      {"measurement": "Response, Fig_S11b dose-response", "setting": "[4]; Log[Drug] -8", "value": "44.0874 and 48.1814 and 41.755 and 12.175 and 7.433 and 11.554 and 48.1991 and 55.9732 and 50.8406"},
      {"measurement": "Response, Fig_S11b dose-response", "setting": "[4]; Log[Drug] -8.52", "value": "32.3511 and 30.5646 and 24.436 and 24.7087 and -0.0952 and 5.9082 and 29.5745 and 42.6986 and 35.9443"},
      {"measurement": "Response, Fig_S11b dose-response", "setting": "[4]; Log[Drug] -9", "value": "34.212 and 32.0286 and 29.2744 and 20.4555 and 1.072 and 15.4496 and 33.7709 and 34.4062 and 30.9956"},
      {"measurement": "Response, Fig_S11b dose-response", "setting": "[4]; Log[Drug] -11", "value": "20.5404 and 9.648 and 18.1596 and 0.62"},
      {"measurement": "Response, Fig_S11b dose-response", "setting": "[4]; Log[Drug] -11.52", "value": "13.5185 and 18.481 and 17.1411 and 15.3743 and -1.1867 and 2.859"},
      {"measurement": "Response, Fig_S11b dose-response", "setting": "[4]; Log[Drug] -12", "value": "-3.8502 and -19.5316 and -15.1399 and -4.9694 and 6.341 and -2.4664 and 2.0891 and 0.1832 and -19.7287"},
      {"measurement": "EC50", "setting": "[5]", "value": "> 10000", "unit": "nM"},
      {"measurement": "Emax relative to quinpirole response", "setting": "[6]; DRD2, Tango", "value": 70.08, "unit": "%"},
      {"measurement": "EC50", "setting": "[6]; DRD2, β-arrestin2 recruitment (Tango), read-out: EC50 ± SEM", "value": "797 ± 57.7", "unit": "nM"},
      {"measurement": "response, Fig_S11c dose-response source data", "setting": "[6]; Fig_S11c, Log[Drug] -5, replicate values", "value": "73.3598 and 82.2115 and 60.0642 and 63.6209 and 63.3142 and 65.0045 and 51.1507 and 58.9513 and 48.4491"},
      {"measurement": "Response, Fig_S11c dose-response", "setting": "[6]; Log[Drug] -6.52", "value": 30.014},
      {"measurement": "Response, Fig_S11c dose-response", "setting": "[6]; Log[Drug] -7", "value": "10.4893 and 10.462 and 11.7147 and 9.282 and 6.266 and 8.074 and 10.4045 and 10.5346 and 7.978"},
      {"measurement": "Response, Fig_S11c dose-response", "setting": "[6]; Log[Drug] -7.52", "value": "6.009 and 6.371 and 5.905 and 4.934 and 4.227 and 4.993 and 4.682 and 6.374 and 4.32"},
      {"measurement": "Response, Fig_S11c dose-response", "setting": "[6]; Log[Drug] -8", "value": "4.1038 and 4.071 and 3.602 and 3.942 and 4.272 and 4.026 and 4.857 and 4.849 and 4.688"},
      {"measurement": "Response, Fig_S11c dose-response", "setting": "[6]; Log[Drug] -8.52", "value": "3.803 and 4.0098 and 4.032 and 4.312 and 4.259 and 4.357 and 4.07 and 4.763 and 3.775"},
      {"measurement": "Response, Fig_S11c dose-response", "setting": "[6]; Log[Drug] -9", "value": "4.244 and 4.685 and 3.406 and 3.869 and 4.425 and 4.183 and 3.883 and 3.8713 and 3.512"},
      {"measurement": "Response, Fig_S11c dose-response", "setting": "[6]; Log[Drug] -9.52", "value": "4.538 and 3.818 and 3.898 and 3.793 and 4.174 and 4.462 and 3.884 and 3.705 and 3.5"},
      {"measurement": "Response, Fig_S11c dose-response", "setting": "[6]; Log[Drug] -10", "value": "3.12 and 5.224 and 4.08 and 4.167 and 4.261 and 4.387 and 3.865 and 3.579 and 4.318"},
      {"measurement": "Response, Fig_S11c dose-response", "setting": "[6]; Log[Drug] -10.52", "value": "3.591 (2×) and 4.048 and 3.394 and 3.852 and 3.958 and 3.858 and 3.561 and 3.474"},
      {"measurement": "Response, Fig_S11c dose-response", "setting": "[6]; Log[Drug] -11", "value": "5.996 and 3.267 and 3.43 and 3.872 and 3.92 and 4.064 and 4.092 and 3.609 and 4.397"},
      {"measurement": "Response, Fig_S11c dose-response", "setting": "[6]; Log[Drug] -11.52", "value": "4.744 and 4.248 and 3.765 and 3.919 and 3.901 and 3.85 and 3.587 and 4.237 and 3.779"},
      {"measurement": "Response, Fig_S11c dose-response", "setting": "[6]; Log[Drug] -12", "value": "4.068 (2×) and 3.901 and 3.393 and 4.0327 and 3.921 and 3.9 and 3.99 and 3.547"},
      {"measurement": "Emax relative to quinpirole response", "setting": "[7]", "value": 32.40, "unit": "%"},
      {"measurement": "EC50", "setting": "[7]; read-out: EC50 ± SEM", "value": "2530 ± 290", "unit": "nM"},
      {"measurement": "EC50", "setting": "[8]", "value": "> 10000", "unit": "nM"},
      {"measurement": "Ki", "setting": "[9]", "value": "> 10000", "unit": "nM"}
    ]}
  ]
}
